{
  "source": "patent WO2005094256A2",
  "about": "“Polypeptides toxic to nematodes, and methods of use” (Individual, priority 2004, dated 2005)",
  "tested_on": "serratia metalloprotease SMP #1 from Serratia marcescens NRRL B-23112, SEQ ID NO:2",
  "assay": "Inhibition of protease activity of SMP #1: residual proteolytic (casein digestion) activity after addition of inhibitor, 25°C, 30 minutes",
  "format": "biochemical",
  "note": "Where a name gives a salt, the structure may show the parent alone. *1 amine or outer side, *2 acyl side, *3 side chain or, on linkers, in order; H or OH if unused. Where a SMILES comes first, the peptide text is derived from it. [ ]: non-standard residue; d: D form. The star is where a group is joined. Sta = CC(C)C[C@H](N)[C@@H](O)CC(=O)O; Isovaleryl = CC(C)CC(=O)*; CO = O=C([*:1])[*:2]",
  "data": [
    {"compound": "CC(C)C[C@H](NC(=O)[C@@H](O)[C@H](N)Cc1ccccc1)C(=O)O", "note": "[bestatin]", "values": [
      {"measurement": "inhibition of SMP #1", "setting": "80μg/ml", "value": "not inhibited"}
    ]},
    {"compound": "Cl.NCCc1ccc(S(=O)(=O)F)cc1", "note": "[Pefabloc SC]", "values": [
      {"measurement": "inhibition of SMP #1", "setting": "2000μg/ml", "value": "not inhibited"}
    ]},
    {"compound": "CC(C)CC(=O)N[C@H](C(=O)N[C@H](C(=O)N[C@@H](CC(C)C)[C@@H](O)CC(=O)N[C@@H](C)C(=O)N[C@@H](CC(C)C)[C@@H](O)CC(=O)O)C(C)C)C(C)C", "note": "[pepstatin] (Isovaleryl-VV[Sta]A[Sta]-OH)", "values": [
      {"measurement": "inhibition of SMP #1", "setting": "4μg/ml", "value": "not inhibited"}
    ]},
    {"compound": "O=C(O)CN(CCN(CC(=O)O)CC(=O)O)CC(=O)O", "note": "[EDTA]", "values": [
      {"measurement": "inhibition of SMP #1", "setting": "9μg/ml", "value": "inhibited"}
    ]},
    {"compound": "OCCS", "note": "[2-mercaptoethanol]", "values": [
      {"measurement": "activity of SMP #1 retained in the presence of 2-mercaptoethanol", "setting": "0.5% v/v", "value": "retains full activity"}
    ]},
    {"compound": "CC(C)C[C@H](NC(=O)[C@@H](NC(=O)N[C@@H](Cc1ccccc1)C(=O)O)[C@@H]1CCN=C(N)N1)C(=O)N[C@H](C=O)Cc1ccccc1", "note": "[chymostatin]", "values": [
      {"measurement": "inhibition of SMP #1", "setting": "50μg/ml", "value": "not inhibited"}
    ]},
    {"compound": "CC(C)[C@H](NC(=O)[C@H](CCCNC(=N)N)NC(=O)N[C@@H](Cc1ccccc1)C(=O)O)C(=O)N[C@H](C=O)CCCNC(=N)N", "note": "[antipain dihydrochloride] ({Phe-CO}-Arg-Val-Arg-aldehyde)", "values": [
      {"measurement": "inhibition of SMP #1", "setting": "120μg/ml", "value": "not inhibited"}
    ]},
    {"compound": "O=S(=O)(F)Cc1ccccc1", "note": "[phenylmethylsulfonyl fluoride]", "values": [
      {"measurement": "inhibition of SMP #1", "setting": "400μg/ml", "value": "not inhibited"}
    ]},
    {"compound": "CC(=O)N[C@@H](CC(C)C)C(=O)N[C@@H](CC(C)C)C(=O)N[C@H](C=O)CCCNC(=N)N", "note": "[leupeptin]", "values": [
      {"measurement": "inhibition of SMP #1", "setting": "4μg/ml", "value": "not inhibited"}
    ]},
    {"compound": "CC(C)C[C@H](NC(=O)[C@H]1O[C@@H]1C(=O)O)C(=O)NCCCCNC(=N)N", "note": "[E-64]", "values": [
      {"measurement": "inhibition of SMP #1", "setting": "20μg/ml", "value": "not inhibited"}
    ]},
    {"compound": "CC(C)C[C@H](NP(=O)(O)O[C@@H]1O[C@@H](C)[C@H](O)[C@@H](O)[C@H]1O)C(=O)N[C@@H](Cc1c[nH]c2ccccc12)C(=O)O", "note": "[phosphoramidon]", "values": [
      {"measurement": "inhibition of SMP #1", "setting": "660μg/ml", "value": "not inhibited"}
    ]}
  ]
}
